This note sets out measurements from patent US11028090B2 (Dong Wha Pharm. Co., Ltd., priority 2017, dated 2021).

For assay [1], the target named is BRD4 (BD1+BD2) bromodomain (Homo sapiens (Human), UniProt O60885). Briefly: BRD4 binding inhibition (AlphaScreen, GST-BRD4 vs tetraacetylated histone H4 peptide). In outline: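 GST-BRD4 (BD1+BD2) and biotinylated tetraacetyl-histone H4 peptide, each at 100 nM in HEPES pH 7.4 buffer with BSA and DTT, were combined with compound. Glutathione acceptor and streptavidin donor beads were added, then incubated 30 min at room temperature in the dark. Read-out was AlphaScreen signal.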

In assay [2] the test system is acute myelogenous leukemia cells (MV-4-11 cells). Put plainly: Cytotoxicity to acute myelogenous leukemia cells (MV-4-11 cells), CCK-8. The following applies: Homo sapiens, MV4-11, 72 h.
The mark [3] stands for this setting: GST-BRD4 (BD1+BD2) / biotinylated acetyl-histone H4 (Lys5,8,12,16) peptide, read-out: IC50, BRD4 binding inhibition.
Where [4] appears, read: GST-BRD4 (BD1+BD2) vs biotinylated acetyl-histone H4 peptide, AlphaScreen, read-out: BRD4 IC50.
Where [5] appears, read: read-out: MV-4-11 Cytotoxicity IC50.
[6] abbreviates: read-out: IC50, cytotoxicity against acute myelogenous leukemia cells.

Where two headings read alike, the source gives them in different places.

Take `COc1cc2nc(NCCCCNC(=O)c3ccccc3F)c3nnc(C)n3c2cc1OC` [Example 106, N-[4-(7,8-dimethoxy-1-methyl-[1,2,4]triazolo[4,3-a]quinoxaline-4-ylamino)-butyl]-2-fluoro-benzamide]: the half-inhibitory concentration (IC50) is at most 50 nM in assay [1] (setting [3]), 28 nM in assay [1] (setting [4]) and 310 nM in assay [2] (setting [5]).

As for `Cc1nnc2c(NCCCCNC(=O)OC(C)C)nc3cc(N4CCOCC4)ccc3n12` [Example 506, [4-(1-methyl-7-morpholine-4-yl-[1,2,4]triazolo[4,3-a]quinoxaline-4-ylamino)-butyl]-carbamic acid isopropylester], the IC50 was at most 50 nM in assay [1] (setting [3]), 15 nM in assay [1] (setting [4]) and 340 nM in assay [2] (setting [5]).

Take `COc1cc2nc(NCCCCC(=O)NCc3ccc[nH]3)c3nnc(C)n3c2cc1OC` [Example 652, 5-(7,8-dimethoxy-1-methyl-[1,2,4]triazolo[4,3-a]quinoxaline-4-ylamino)-pentanoic acid-(1H-pyrrole-2-ylmethyl)-amide]: the IC50 in assay [1] (setting [3]) is at most 50 nM; in assay [1] (setting [4]), 27 nM; in assay [2] (setting [6]) it was at most 200 nM; in assay [2] (setting [5]), 200 nM.

With `COc1ccc2c(c1)nc(NCCCCNC(=O)[C@@H](Br)C(C)C)c1nnc(C)n12` [Example 302, 2-(S)-bromo-N-[4-(7-methoxy-1-methyl-[1,2,4]triazolo[4,3-a]quinoxaline-4-ylamino)-butyl]-3-methyl-butyramide], the IC50 is at most 10 nM in assay [1] (setting [3]), 8 nM in assay [1] (setting [4]), at most 200 nM in assay [2] (setting [6]) and 66 nM in assay [2] (setting [5]).

As to `CCC(C)OC(=O)NCCCCNc1nc2cc(OC)c(OC)cc2n2c(C)nnc12` (stereo not drawn) [Example 63, [4-(7,8-dimethoxy-1-methyl-[1,2,4]triazolo[4,3-a]quinoxaline-4-ylamino)-butyl]-carbamic acid-sec-butylester], the IC50 was at most 50 nM in assay [1] (setting [3]), 12 nM in assay [1] (setting [4]), at most 200 nM in assay [2] (setting [6]) and 70 nM in assay [2] (setting [5]).

Regarding `COc1cc2nc(NCCCCNC(=O)CC(C)C)c3nnc(C)n3c2cc1NC(=O)CC(C)C` [Example 562, N-{4-[7-methoxy-1-methyl-8-(3-methyl-butyrylamino)-[1,2,4]triazolo[4,3-a]quinoxaline-4-ylamino]-butyl}-3-methyl-butyramide], the values for the 50% inhibitory concentration (IC50) in assay [1] (setting [3]), in assay [1] (setting [4]) and in assay [2] (setting [5]) were at most 50 nM, 32 nM and 375 nM, respectively.

On to `COc1cc2nc(NCCCCN)c3nnc(C)n3c2cc1C` [Example 465, N^1-(7-methoxy-1,8-dimethyl-[1,2,4]triazolo[4,3-a]quinoxaline-4-yl)-butane-1,4-diamine ditrifluoroacetic acid], for which the IC50 in assay [1] (setting [4]) is 72 nM; in assay [2] (setting [5]) it was 690 nM.

For the compound `COc1cc2nc(NCCCCNC(=O)CC(C)C)c3nnc(C)n3c2cc1NS(=O)(=O)CC(C)C` [Example 567], the IC50 in assay [1] (setting [3]) was at most 50 nM; in assay [1] (setting [4]), 13 nM; in assay [2] (setting [6]), at most 200 nM; in assay [2] (setting [5]), 200 nM.

Consider `CCC(C)C(=O)NCCCCNc1nc2cc(OC(C)C)ccc2n2c(C)nnc12` (stereo not drawn) [Example 450, N-[4-(7-isopropoxy-1-methyl-[1,2,4]triazolo[4,3-a]quinoxaline-4-ylamino)-butyl]-2-methyl-butyramide], for which the values for the IC50 in assay [1] (setting [3]), in assay [1] (setting [4]) and in assay [2] (setting [5]) were at most 50 nM, 19 nM and 270 nM, respectively.

As to `COc1cc2c(cc1C)nc(NCCCCNC(=O)CC(C)C)c1nnc(C)n12` [Example 151, N-[4-(8-methoxy-1,7-dimethyl-[1,2,4]triazolo[4,3-a]quinoxaline-4-ylamino)-butyl]-3-methyl-butyramide], the results for the IC50 in assay [1] (setting [4]) and in assay [2] (setting [5]) were 52 nM and 380 nM, respectively.

With `COc1cc2nc(NCCCCNC(=O)CC(C)C)c3nnc(C)n3c2cc1F` [Example 574, N-[4-(8-fluoro-7-methoxy-1-methyl-[1,2,4]triazolo[4,3-a]quinoxaline-4-ylamino)-butyl]-3-methyl-butyramide], the IC50 was at most 50 nM in assay [1] (setting [3]), 40 nM in assay [1] (setting [4]), at most 200 nM in assay [2] (setting [6]) and 45 nM in assay [2] (setting [5]).

For orientation: IC50 means the concentration that inhibits the measured activity by half.
